A short description of data set [1]: Selectivity index, ratio of CC50 for human TZM-bl cells to IC50 for antiviral activity against HIV1 89.6 pseudovirus infected in human TZM-bl cells. The format is toxicity, cell-based. The following applies: read-out: Ratio CC50/IC50.
Data set [2] deals with Human immunodeficiency virus 1. The data set is described as follows: Antiviral activity against HIV1 89.6 pseudovirus infected in human TZM-bl cells assessed as inhibition of viral infection incubated for 20 mins prior to infection and measured after 48 hrs post infection by bright Glo-luciferase reporter gene assay. In kind it is functional, organism-based, M:B_89.6.
In data set [3] the test system is Human immunodeficiency virus 1. Put plainly: Antiviral activity against HIV1 LAI infected in human LC5 cells expressing DsRed1 reporter gene assessed as inhibition of viral infection measured after 48 hrs post infection by reporter gene based […] assay. The format is functional, organism-based. On the technique in general: Reporter assays use an easily measured gene product as a stand-in for the process of interest.

For data set [4], the system named is Human immunodeficiency virus 1. Put plainly: Antiviral activity against HIV1 HXB2 pseudovirus infected in human TZM-bl cells assessed as inhibition of viral infection incubated for 20 mins prior to infection and measured after 48 hrs by bright Glo-luciferase reporter gene assay. In kind it is functional, organism-based, M:B_HXB2R.
The test system of data set [5] is Human immunodeficiency virus 1. The data set is described as follows: Antiviral activity against HIV1 YU2 pseudovirus infected in human TZM-bl cells assessed as inhibition of viral infection incubated for 20 mins prior to infection and measured after 48 hrs post infection by bright Glo-luciferase reporter gene assay. The format is functional, organism-based, isolate YU2.

The nature of data set [6]: (§1) Cytotoxicity against human TZM-bl cells assessed as reduction in cell viability after 48 hrs by MTT assay. In kind it is cell-based. The following applies: TZM-bl cells.
Data set [7] in a line: Cytotoxicity against human LC5 cells assessed as reduction in cell viability incubated for 48 hrs by resazurin dye-based assay. The following applies: for CC50 at 48 h: LC5 cells.
Data set [8] in a line: Selectivity index, ratio of CC50 for human LC5 cells to IC50 for antiviral activity against HIV1 LAI infected in human LC5 cells. The following applies: read-out: Ratio CC50/IC50. In kind it is toxicity, cell-based.
Data set [9] has as its system Human immunodeficiency virus 1. The data set is described as follows: Antiviral activity against HIV1 V13-03413B infected in human LC5 cells expressing DsRed1 reporter gene assessed as inhibition of viral infection measured after 48 hrs post infection by reporter gene based […] assay. The format is functional, organism-based. The following applies: Human immunodeficiency virus 1, V13-03413B.

Data set [10] in a line: Metal chelating activity assessed as compound-Mg2+ complex formation in presence of varying concentrations of Mg2+ at 100 uM by UV-vis spectrometry. The format is ADME.
Data set [11] in a line: Compound aggregation in D2O/1% DMSO-d6 solvent assessed as change in chemical shift at 12 to 200 uM by 1H NMR dilution analysis. In kind it is physicochemical.
Data set [12] addresses Human immunodeficiency virus type 1 integrase (Human immunodeficiency virus 1, UniProt Q7ZJM1). Put plainly: Inhibition of recombinant HIV1 integrase strand transfer activity using biotin-labeled double-stranded HIV1 LTR U5 donor DNA substrate pretreated for 5 mins followed by substrate addition and measured after 30 mins by ELISA. On the technique in general: In an ELISA, binding on a coated surface is turned into a signal by an enzyme label.

Data set [13] addresses T1, Human immunodeficiency virus type 1 reverse transcriptase (Human immunodeficiency virus 1, UniProt Q72547). Put plainly: Inhibition of HIV1 Reverse transcriptase polymerase assessed as decrease in digoxigenin and biotin-dUTP incorporation into DNA using poly(A)/oligo(dT)15 as template/primer by ELISA.
Data set [14] can be described thus: Inhibition of Avian myeloblastosis virus reverse transcriptase RNase H using 18-nucleotide 3'-fluorescein-labeled RNA/5'-dabcyl-labeled DNA hybrid as substrate measured after 1 hr by FRET based assay.
Data set [15] concerns the target T1, Human immunodeficiency virus type 1 reverse transcriptase. Put plainly: Binding affinity to recombinant wild-type full length HIV1 reverse transcriptase p66/p51 expressed in Escherichia coli by biolayer interferometry. Background: BLI is a label-free optical method that tracks binding on a fibre tip over time.
A further data set has as its target Reverse transcriptase (Moloney murine leukemia virus, UniProt Q83371). The data set is described as follows: Inhibition of Murine leukemia virus reverse transcriptase RNase H using 18-nucleotide 3'-fluorescein-labeled RNA/5'-dabcyl-labeled DNA hybrid as substrate measured after 1 hr by FRET based assay.
A short description of data set [16]: Inhibition of Escherichia coli reverse transcriptase RNase H using 18-nucleotide 3'-fluorescein-labeled RNA/5'-dabcyl-labeled DNA hybrid as substrate measured after 1 hr by FRET based assay.
Data set [17] addresses T1, Human immunodeficiency virus type 1 reverse transcriptase. The data set is described as follows: Inhibition of HIV1 reverse transcriptase RNase H using 18-nucleotide 3'-fluorescein-labeled RNA/5'-dabcyl-labeled DNA hybrid as substrate measured after 1 hr by FRET based assay.
The nature of data set [18]: Compound aggregation in D2O/1% DMSO-d6 solvent assessed as peak shape at 12 to 200 uM by 1H NMR dilution analysis. The format is physicochemical.
For data set [19], the system named is Human immunodeficiency virus 1. The data set is described as follows: Selectivity ratio of IC50 for HIV1 V13-03413B infected in human LC5 cells to IC50 for HIV1 LAI infected in human LC5 cells. The format is functional.
Data set [20] in a line: Compound aggregation in D2O/1% DMSO-d6 solvent assessed as number of resonance at 12 to 200 uM by 1H NMR dilution analysis. The format is physicochemical.
In a further data set the test system is TZM. Described as §1. The format is cell-based. The following applies: tzm, 48 h.
Data set [21] in a line: Half life of the compound in methyl alcohol assessed as compound racemization at 24 degC. In kind it is physicochemical.
Data set [22] can be described thus: Selectivity index, ratio of CC50 for human TZM-bl cells to IC50 for antiviral activity against HIV1 HXB2 pseudovirus infected in human TZM-bl cells. The format is toxicity, cell-based. The following applies: read-out: Ratio CC50/IC50.
Data set [23] concerns Human immunodeficiency virus 1. Put plainly: Antiviral activity against HIV1 HXB2 pseudovirus infected in human TZM-bl cells assessed as inhibition of viral infection at 20 nM measured after 48 hrs post infection by bright Glo-luciferase reporter gene assay relative to control. In kind it is functional. The following applies: Human immunodeficiency virus 1, M:B_HXB2R.
The subject of data set [24] is Human immunodeficiency virus 1. The data set is described as follows: Antiviral activity against HIV1 YU2 pseudovirus infected in human TZM-bl cells assessed as inhibition of viral infection at 20 nM measured after 48 hrs post infection by bright Glo-luciferase reporter gene assay relative to control. The format is functional. The note with it: Human immunodeficiency virus 1, isolate YU2, TZM-bl.

The subject of data set [25] is Human immunodeficiency virus 1. The data set is described as follows: Antiviral activity against HIV1 89.6 pseudovirus infected in human TZM-bl cells assessed as inhibition of viral infection at 20 nM measured after 48 hrs post infection by bright Glo-luciferase reporter gene assay relative to control. In kind it is functional. The note with it: Human immunodeficiency virus 1, M:B_89.6, TZM-bl.

For data set [26], the system named is Human immunodeficiency virus 1. Put plainly: Antiviral activity against HIV1 HXB2 pseudovirus infected in human TZM-bl cells assessed as inhibition of viral infection up to 200 uM incubated for 20 mins prior to infection and measured after 48 hrs post infection by bright Glo-luciferase reporter gene assay. The format is functional, organism-based. The note with it: M:B_HXB2R.

Data set [27] deals with Human immunodeficiency virus 1. The data set is described as follows: Antiviral activity against HIV1 LAI infected in human LC5 cells expressing DsRed1 reporter gene assessed as inhibition of viral infection up to 200 uM measured after 48 hrs post infection by reporter gene based […] assay. The format is functional, organism-based.
Data set [28] concerns Human immunodeficiency virus 1. Put plainly: Antiviral activity against HIV1 89.6 pseudovirus infected in human TZM-bl cells assessed as inhibition of viral infection up to 200 uM incubated for 20 mins prior to infection and measured after 48 hrs post infection by bright Glo-luciferase reporter gene assay. The following applies: M:B_89.6. In kind it is functional, organism-based.

Data set [29] has as its system Human immunodeficiency virus 1. Put plainly: Antiviral activity against HIV1 YU2 pseudovirus infected in human TZM-bl cells assessed as inhibition of viral infection up to 200 uM incubated for 20 mins prior to infection and measured after 48 hrs post infection by bright Glo-luciferase reporter gene assay. In kind it is functional, organism-based. The note with it: isolate YU2.

Where [30] appears, read: Human immunodeficiency virus 1, M:B_89.6, TZM-bl, read-out: IC50.
Where [31] appears, read: Human immunodeficiency virus 1, LAI, 48 h, read-out: IC50.
Where [32] appears, read: Human immunodeficiency virus 1, M:B_HXB2R, TZM-bl, read-out: IC50.
The mark [33] stands for this setting: Human immunodeficiency virus 1, isolate YU2, TZM-bl, read-out: IC50.

A word on the IC50: it is the concentration needed to halve the response being measured. Broadly, the CC50 is the concentration giving 50% cytotoxicity. The Kd is a measure of binding affinity in units of concentration. As a reminder, the half-life is how long it takes for the measured level to halve. Usually inhibition stands for the share of the control response that was lost under treatment.

Calls of active or inactive are those of the source. The calls are words filed in the database; no cut-off is given here.

Human immunodeficiency virus type 1 integrase, sequence (Q7ZJM1 whole entry): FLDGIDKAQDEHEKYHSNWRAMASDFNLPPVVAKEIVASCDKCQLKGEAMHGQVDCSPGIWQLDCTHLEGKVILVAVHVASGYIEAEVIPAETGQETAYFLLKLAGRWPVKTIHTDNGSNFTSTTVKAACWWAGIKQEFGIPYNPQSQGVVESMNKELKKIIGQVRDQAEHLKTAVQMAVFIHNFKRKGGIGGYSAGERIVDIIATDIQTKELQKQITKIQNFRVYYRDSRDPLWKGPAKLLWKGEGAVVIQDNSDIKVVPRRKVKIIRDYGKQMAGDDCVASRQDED

Take `CCN(CC)C(=O)Oc1ccc2cccnc2c1-c1cccc2ccccc12`: the results for the selectivity ratio in data set [1] and in data set [8] were 1.7 and 2.2, respectively. Further, the 50% inhibitory concentration (IC50) is 56.6 µM in data set [2] (setting [30]), 24.1 µM in [3] (setting [31]), 61.4 µM in [4] (setting [32]) and 77.6 µM in data set [5] (setting [33]). Besides, the half-maximal cytotoxic concentration (CC50) at 48 h in data set [6] was determined as 95 µM; in data set [7] it was 51.9 µM.
On to `CC(C)Oc1ccc2cccnc2c1-c1cccc2ccccc12`, for which the half-maximal inhibitory concentration (IC50) was 34.2 µM in data set [9]; 4.7 µM in [2] (setting [30]); greater than 100 µM in data set [12]; 6.7 µM in data set [3] (setting [31]); greater than 100 µM in [13]; 6.7 µM in data set [4] (setting [32]). Moreover, the 50% inhibitory concentration (IC50) in data set [5] (setting [33]) was 8.9 µM; in data set [14], greater than 100 µM; on Reverse transcriptase it was greater than 100 µM; in [16], 44.3 µM; in data set [17] it was 46.8 µM. Besides, the Activity entry in data set [10], in data set [11], in data set [18] and in data set [20] was “Not Active” in each case. Besides, the selectivity ratio in [1] came to 14.6; in [8] it was 11.4. Further, the Kd in [15] stood at 38 µM. Moreover, the CC50 at 48 h in data set [6] was 68.5 µM; in data set [7], 86.5 µM. Moreover, the “Ratio IC50” value in data set [19] stood at 5.
`O=C1Nc2ccc(Cl)cc2[C@@](C#CC2CC2)(C(F)(F)F)O1` [EFAVIRENZ]: the CC50 result with TZM was “Non-Toxic”.
In the case of `Oc1ccc2ccccc2c1-c1cccc2cccnc12`, in [21], the half-life is 3.71 days.
Consider `CC(C)Oc1ccc2ccccc2c1-c1cccc2cccnc12`, for which the IC50 in data set [2] (setting [30]) was greater than 100 µM; in data set [3] (setting [31]), 39.5 µM; in data set [4] (setting [32]), greater than 100 µM; in data set [5] (setting [33]), greater than 100 µM. In addition, the values for the CC50 at 48 h in data set [6] and in data set [7] were greater than 100 µM and 145 µM, respectively. The selectivity ratio in data set [8] was determined as 3.6.
For the molecule `CCN(CC)C(=O)Oc1ccc2ccccc2c1-c1cccc2cccnc12`, the concentration for half-maximal inhibition (IC50) in data set [2] (setting [30]) was determined as 16.8 µM; in data set [3] (setting [31]) it was 50.1 µM; in data set [4] (setting [32]), 12.6 µM; in data set [5] (setting [33]), 14 µM. Besides, the selectivity ratio in data set [22] came out at 5.5; in [8] it was 1.4. Further, the results for the CC50 at 48 h in data set [6] and in data set [7] were 69.3 µM and 71.4 µM, respectively.
Consider `COc1cnc(-n2cnc(C)n2)c2[nH]cc(C(=O)C(=O)N3CCN(C(=O)c4ccccc4)CC3)c12`, for which the inhibition at 0.02 µM in data set [23], in data set [24] and in [25] was 100% in each case.
In the case of `CCN(CC)C(=O)Oc1ccc2cccnc2c1-c1cccc2cccnc12`, the result in data set [26], in [27], in data set [28] and in data set [29] was inactive. The IC50 result in data set [2], in [3], in [4] and in [5] was “Not Active” throughout. Also, the CC50 result in the data set on TZM is recorded as “Non-Toxic”. Further, in data set [7], the CC50 at 48 h came to 383 µM.
`Cc1cc(/C=C/C#N)cc(C)c1Nc1ccnc(Nc2ccc(C#N)cc2)n1` [RILPIVIRINE]: the IC50 (against Reverse transcriptase; in data set [16]; in [17]) was greater than 10 µM each time.
In the case of `Oc1ccc2cccnc2c1-c1cccc2ccccc12`, the half-life in data set [21] was 5 days.
In the case of `NC(=O)c1c(N)sc2c1CCCCC2`, the concentration for half-maximal inhibition (IC50) in [17] was determined as 28.1 µM.
Consider `CC(C)Oc1ccc2cccnc2c1-c1cccc2cccnc12`, for which the result in data set [26], in [27], in data set [28] and in data set [29] was inactive. The IC50 result in [2] was “Not Active”; in data set [12], greater than 100 µM; in [3], “Not Active”; in data set [13] it was greater than 100 µM; in data set [4], “Not Active”; in data set [5] it was “Not Active”. Further, the IC50 (against Reverse transcriptase; in data set [16]; in data set [17]) was greater than 100 µM each time. The CC50 entry (in the data set with TZM; in data set [7] (48 h)) was “Non-Toxic” each time.

These data come from ChEMBL document CHEMBL4346738, “Biological evaluation of molecules of the azaBINOL class as antiviral agents: Inhibition of HIV-1 RNase H activity by 7-isopropoxy-8-(naphth-1-yl)quinoline” (Bioorg Med Chem, 2019).
